Assay results: ChEMBL document CHEMBL1201862, “PubChem BioAssay data set” (2004)
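Step 1: Grow cells in 96-well plates. Step 2: Expose to compound for 48 hours at 5 concentrations. Step 3: Interpolate endpoints linearly; if unreached, use highest concentration. The concentration for 50% growth inhibition is given as GI50.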 Calls of active or inactive are those of the source. Cut-off read from the data, not from the text of the source: active = GI50 up to about 1.1 µM and inactive = higher.

Experiments:
Assay in all cases: growth of human tumour cells (NCI), 48 h
LOX IMVI = system: LOX IMVI
NCI-H460 = system: NCI-H460
TK-10 = system: TK-10
EKVX = system: EKVX
NCI/ADR-RES = system: NCI/ADR-RES
OVCAR-4 = system: OVCAR-4
OVCAR-5 = system: OVCAR-5
SNB-75 = system: SNB-75
SK-MEL-2 = system: SK-MEL-2
UACC-257 = system: UACC-257
T47D = system: T47D
ACHN = system: ACHN
786-0 = system: 786-0
U-251 = system: U-251
HCT-116 = system: HCT-116
MDA-N = system: MDA-N
IGROV-1 = system: IGROV-1
M14 = system: M14
PC-3 = system: PC-3
COLO 205 = system: COLO 205
SW-620 = system: SW-620
SF-295 = system: SF-295
NCI-H226 = system: NCI-H226
HCT-15 = system: HCT-15
OVCAR-3 = system: OVCAR-3
A549 = system: A549
SNB-19 = system: SNB-19
SF-539 = system: SF-539
CCRF-CEM = system: CCRF-CEM
CAKI-1 = system: CAKI-1
NCI-H522 = system: NCI-H522
OVCAR-8 = system: OVCAR-8
UO-31 = system: UO-31
KM12 = system: KM12
NCI-H23 = system: NCI-H23
MDA-MB-435 = system: MDA-MB-435
MCF7 = system: MCF7
SF-268 = system: SF-268
SK-OV-3 = system: SK-OV-3
Malme-3M = system: Malme-3M
HOP-62 = system: HOP-62
HCC 2998 = system: HCC 2998
SK-MEL-28 = system: SK-MEL-28
SK-MEL-5 = system: SK-MEL-5
MDA-MB-231 = system: MDA-MB-231
SN12C = system: SN12C
RPMI-8226 = system: RPMI-8226
BT-549 = system: BT-549
RXF 393 = system: RXF 393
A498 = system: A498
DU-145 = system: DU-145
HL-60 = system: HL-60
UACC-62 = system: UACC-62
SR = system: SR
HOP-92 = system: HOP-92
HT-29 = system: HT-29
MOLT-4 = system: MOLT-4
K562 = system: K562

What does the source list for `N#Cc1c(-c2ccccc2)c(/C=N/c2ccc(F)cc2)c(=O)n2c1[nH]c1ccccc12`?
GI50 (LOX IMVI): 23.8 µM (inactive); GI50 (NCI-H460): 17.8 µM (inactive); GI50 (TK-10): 20.8 µM (inactive); GI50 (EKVX): 19.8 µM (inactive); GI50 (NCI/ADR-RES): 21 µM (inactive); GI50 (OVCAR-4): 40.6 µM (inactive); GI50 (OVCAR-5): 26.7 µM (inactive); GI50 (SNB-75): 39 µM (inactive); GI50 (SK-MEL-2): 26.9 µM (inactive); GI50 (UACC-257): 28.5 µM (inactive); GI50 (T47D): 27.7 µM (inactive); GI50 (ACHN): 18.5 µM (inactive); GI50 (786-0): 24.7 µM (inactive); GI50 (U-251): 46.7 µM (inactive); GI50 (HCT-116): 14.7 µM (inactive); GI50 (MDA-N): 10.4 µM (inactive); GI50 (IGROV-1): 25.4 µM (inactive); GI50 (M14): 14.4 µM (inactive); GI50 (PC-3): 28.6 µM (inactive); GI50 (COLO 205): 29.8 µM (inactive); GI50 (SW-620): 29.5 µM (inactive); GI50 (SF-295): 18.5 µM (inactive); GI50 (NCI-H226): 27.6 µM (inactive); GI50 (HCT-15): 19.7 µM; GI50 (OVCAR-3): 19.7 µM (inactive); GI50 (A549): 19.7 µM (inactive); GI50 (SNB-19): 28.3 µM (inactive); GI50 (SF-539): 30.2 µM (inactive); GI50 (CCRF-CEM): 15.6 µM (inactive); GI50 (CAKI-1): 13.6 µM (inactive); GI50 (NCI-H522): 16 µM (inactive); GI50 (OVCAR-8): 34.2 µM (inactive); GI50 (UO-31): 16.2 µM (inactive); GI50 (KM12): 29.6 µM (inactive); GI50 (NCI-H23): 37 µM (inactive); GI50 (MDA-MB-435): 18.4 µM (inactive); GI50 (MCF7): 36.6 µM (inactive); GI50 (SF-268): 29.4 µM (inactive); GI50 (SK-OV-3): 36.3 µM (inactive); GI50 (Malme-3M): 23.6 µM (inactive); GI50 (HOP-62): 2.95 µM (inactive); GI50 (HCC 2998): 21.2 µM (inactive); GI50 (SK-MEL-28): 37.1 µM (inactive); GI50 (SK-MEL-5): 25.6 µM (inactive); GI50 (MDA-MB-231): 51.6 µM (inactive); GI50 (SN12C): 22.4 µM (inactive); GI50 (RPMI-8226): 3.06 µM (inactive); GI50 (BT-549): 35.5 µM (inactive); GI50 (RXF 393): 22.5 µM (inactive); GI50 (A498): 29.4 µM (inactive)

Which GI50 (LOX IMVI) does the source give for `C=Cc1ccccc1C1C(C(=O)OCC)=C(C)N=C2OC(C(=O)OC)C(=O)N21` (stereo not drawn) here?
Its GI50 is > 100 µM (inactive).

And the GI50 (NCI-H460)?
Its GI50 is > 100 µM (inactive).

What about the GI50 (TK-10) of the same molecule?
The GI50 was > 100 µM (inactive).

And the GI50 (DU-145)?
The GI50 was > 100 µM (inactive).

What about the GI50 (HL-60) of the same molecule?
Its GI50 is 87.5 µM (inactive).

What about the GI50 (EKVX) of the same molecule?
The GI50 was > 100 µM (inactive).

What about the GI50 (NCI/ADR-RES) of the same molecule?
Its GI50 is > 100 µM (inactive).

What about the GI50 (OVCAR-4) of the same molecule?
Its GI50 is > 100 µM (inactive).

What about the GI50 (OVCAR-5) of the same molecule?
Its GI50 is > 100 µM (inactive).

And the GI50 (SNB-75)?
The GI50 was > 100 µM (inactive).

What about the GI50 (SK-MEL-2) of the same molecule?
The GI50 was > 100 µM (inactive).

And the GI50 (UACC-257)?
Its GI50 is > 100 µM (inactive).

And the GI50 (UACC-62)?
The GI50 was > 100 µM (inactive).

And the GI50 (T47D)?
Its GI50 is > 100 µM (inactive).

And the GI50 (ACHN)?
The GI50 was > 100 µM (inactive).

And the GI50 (SR)?
Its GI50 is > 100 µM (inactive).

What about the GI50 (786-0) of the same molecule?
Its GI50 is > 100 µM (inactive).

What about the GI50 (U-251) of the same molecule?
The GI50 was > 100 µM (inactive).

And the GI50 (HCT-116)?
Its GI50 is > 100 µM (inactive).

And the GI50 (MDA-N)?
Its GI50 is > 100 µM (inactive).

What about the GI50 (IGROV-1) of the same molecule?
The GI50 was > 100 µM (inactive).

And the GI50 (M14)?
The GI50 was > 100 µM (inactive).

What about the GI50 (PC-3) of the same molecule?
The GI50 was > 100 µM (inactive).

And the GI50 (COLO 205)?
Its GI50 is > 100 µM (inactive).

And the GI50 (SW-620)?
Its GI50 is > 100 µM (inactive).

What about the GI50 (SF-295) of the same molecule?
The GI50 was > 100 µM (inactive).

What about the GI50 (NCI-H226) of the same molecule?
The GI50 was > 100 µM (inactive).

And the GI50 (HCT-15)?
Its GI50 is over 100 µM.

And the GI50 (OVCAR-3)?
The GI50 was > 100 µM (inactive).

What about the GI50 (A549) of the same molecule?
Its GI50 is > 100 µM (inactive).

What about the GI50 (SNB-19) of the same molecule?
The GI50 was > 100 µM (inactive).

What about the GI50 (SF-539) of the same molecule?
Its GI50 is > 100 µM (inactive).

What about the GI50 (HOP-92) of the same molecule?
Its GI50 is > 100 µM (inactive).

What about the GI50 (CCRF-CEM) of the same molecule?
Its GI50 is > 100 µM (inactive).

And the GI50 (CAKI-1)?
Its GI50 is > 100 µM (inactive).

What about the GI50 (NCI-H522) of the same molecule?
Its GI50 is > 100 µM (inactive).

And the GI50 (OVCAR-8)?
The GI50 was > 100 µM (inactive).

What about the GI50 (UO-31) of the same molecule?
Its GI50 is > 100 µM (inactive).

What about the GI50 (KM12) of the same molecule?
The GI50 was > 100 µM (inactive).

What about the GI50 (NCI-H23) of the same molecule?
Its GI50 is > 100 µM (inactive).

And the GI50 (MDA-MB-435)?
The GI50 was > 100 µM (inactive).

What about the GI50 (HT-29) of the same molecule?
The GI50 was > 100 µM (inactive).

What about the GI50 (MCF7) of the same molecule?
Its GI50 is > 100 µM (inactive).

And the GI50 (SF-268)?
Its GI50 is > 100 µM (inactive).

What about the GI50 (SK-OV-3) of the same molecule?
Its GI50 is > 100 µM (inactive).

And the GI50 (MOLT-4)?
The GI50 was > 100 µM (inactive).

And the GI50 (Malme-3M)?
The GI50 was > 100 µM (inactive).

And the GI50 (HOP-62)?
The GI50 was > 100 µM (inactive).

What about the GI50 (HCC 2998) of the same molecule?
Its GI50 is > 100 µM (inactive).

And the GI50 (SK-MEL-28)?
Its GI50 is > 100 µM (inactive).

And the GI50 (SK-MEL-5)?
The GI50 was > 100 µM (inactive).

And the GI50 (MDA-MB-231)?
The GI50 was > 100 µM (inactive).

And the GI50 (SN12C)?
Its GI50 is > 100 µM (inactive).

What about the GI50 (RPMI-8226) of the same molecule?
The GI50 was > 100 µM (inactive).

And the GI50 (BT-549)?
Its GI50 is > 100 µM (inactive).

What about the GI50 (RXF 393) of the same molecule?
Its GI50 is > 100 µM (inactive).

What about the GI50 (A498) of the same molecule?
Its GI50 is > 100 µM (inactive).

And the GI50 (K562)?
Its GI50 is > 100 µM (inactive).
